Reference: US20220340629A1, “Myosin Derived Peptides and Related Compounds with Anticoagulant Activities” (THE SCRIPPS RESEARCH INSTITUTE, priority 0001, published 2022)
pIC50: −log10 of the molar value. Like-named read-outs stand apart in the source and are kept apart here. Residues, ends and D or L forms follow the SMILES beside them.

Legend:
[1] = target: phospholipid-supported prothrombin activation by factors Xa and Va (Homo sapiens, UniProt P00742); experiment: Assay 1C: phospholipid vesicle (PC/PS 80%/20%)-supported prothrombin activation; assay type: biochemical
[2] = tested on: thrombin generation in human plasma; experiment: Thrombin generation assay in pooled normal human plasma (Examples 3 and 4); assay type: biochemical; settings: screened at 25 μM, FIG. 3A
Experimental: Thrombin generation assay in pooled human plasma: The effect of synthetic peptides on thrombin generation in pooled normal human plasma (George King Bio-medical, Inc., Overland Park, KS) was tested as described (1,11). Briefly, normal human plasma (30 μl) was mixed with CTI, followed by the addition of peptide. Then, tissue factor (TF) (Innovin) (0.5[…] pM final) containing 30 mM Ca^++ in TBSA with fluorogenic thrombin substrate solution (I-1140) (Bachem Americas, Inc., Torrance, Calif.) were added to the plasma to initiate coagulation activation. The first derivative of the time course data for substrate hydrolysis yielded the thrombin generation curve, allowing measurement of thrombin generation during the initiation, propagation and termination phases of thrombin generation and the value for peak thrombin generated.

[3] = target: T1, prothrombin activation by factor Xa and factor Va (no myosin) (Homo sapiens, UniProt P00742); experiment: Assay 1B: prothrombin activation by factor Xa/factor Va, no myosin; assay type: biochemical; settings: for inhibition of prothrombin activation in the absence of myosin: FIG. 4, peptide 0-300 μM
T1 construct: the same reaction mixture of factor Xa, factor Va and prothrombin

[4] = tested on: skeletal muscle myosin-supported prothrombin activation by factors Xa and Va; experiment: Assay 1A: prothrombin activation by factor Xa/factor Va/myosin in purified system; assay type: biochemical, human factors Xa and Va; rabbit skeletal muscle myosin; settings: for pIC50: dose-dependency assays, FIG. 2A, myosin 2 nM, read-out: IC50, inhibition of myosin-supported prothrombin activation; for inhibition of myosin-supported prothrombin activation at 5 μM: peptide 5 μM; for inhibition of myosin-supported prothrombin activation at 5 μM / inhibition of myosin-supported prothrombin activation at 100 μM: FIG. 1A; for inhibition of myosin-supported prothrombin activation at 100 μM: peptide 100 μM; for inhibition of myosin-supported prothrombin activation: dose-dependent studies, FIG. 4, TFP 0-100 μM, ELC peptides 0-300 μM
[5] = target: skeletal muscle myosin-supported prothrombin activation by factors Xa and Va (Homo sapiens, UniProt P00742); experiment: as above; assay type: biochemical, human factors Xa and Va; rabbit skeletal muscle myosin; settings: purified system, prothrombin activation with myosin; read-out: 1A (+ myosin) IC50
skeletal muscle myosin-supported prothrombin activation by factors Xa and Va (Homo sapiens, UniProt P00742), sequence (P00742 41-179): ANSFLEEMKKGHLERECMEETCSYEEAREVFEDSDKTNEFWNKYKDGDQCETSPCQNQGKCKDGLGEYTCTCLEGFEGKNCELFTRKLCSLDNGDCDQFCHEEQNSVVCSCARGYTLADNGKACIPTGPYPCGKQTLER
skeletal muscle myosin-supported prothrombin activation by factors Xa and Va (Homo sapiens, UniProt P00742), sequence (P00742 235-488): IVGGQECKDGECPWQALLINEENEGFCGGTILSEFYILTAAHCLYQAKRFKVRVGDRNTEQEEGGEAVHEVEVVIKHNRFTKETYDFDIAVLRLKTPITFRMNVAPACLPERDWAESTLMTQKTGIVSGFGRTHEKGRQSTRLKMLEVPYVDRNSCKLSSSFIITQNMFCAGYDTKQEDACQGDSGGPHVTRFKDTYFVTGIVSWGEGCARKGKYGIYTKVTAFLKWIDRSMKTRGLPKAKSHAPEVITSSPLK
skeletal muscle myosin-supported prothrombin activation by factors Xa and Va (Homo sapiens, UniProt P00742), sequence (P12259 29-737 partner): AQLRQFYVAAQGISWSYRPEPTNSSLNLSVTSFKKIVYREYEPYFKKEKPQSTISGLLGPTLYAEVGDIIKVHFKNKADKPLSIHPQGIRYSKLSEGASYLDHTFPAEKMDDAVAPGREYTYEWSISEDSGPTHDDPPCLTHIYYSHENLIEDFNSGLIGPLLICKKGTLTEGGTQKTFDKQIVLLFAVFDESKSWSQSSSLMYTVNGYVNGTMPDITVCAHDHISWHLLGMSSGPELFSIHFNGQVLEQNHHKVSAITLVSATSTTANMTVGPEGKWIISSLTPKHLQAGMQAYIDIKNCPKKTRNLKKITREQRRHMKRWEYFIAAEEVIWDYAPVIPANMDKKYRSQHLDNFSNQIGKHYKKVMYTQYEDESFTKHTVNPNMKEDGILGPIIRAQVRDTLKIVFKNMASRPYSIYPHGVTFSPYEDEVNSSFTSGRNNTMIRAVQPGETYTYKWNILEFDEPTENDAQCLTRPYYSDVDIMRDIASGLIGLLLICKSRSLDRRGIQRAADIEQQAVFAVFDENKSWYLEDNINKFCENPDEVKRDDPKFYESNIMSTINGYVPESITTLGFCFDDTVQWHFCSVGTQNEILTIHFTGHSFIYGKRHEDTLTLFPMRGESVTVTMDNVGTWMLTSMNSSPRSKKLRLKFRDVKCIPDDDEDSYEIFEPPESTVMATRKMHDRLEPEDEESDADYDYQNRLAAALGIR
skeletal muscle myosin-supported prothrombin activation by factors Xa and Va (Homo sapiens, UniProt P00742), sequence (P12259 1574-2224 partner): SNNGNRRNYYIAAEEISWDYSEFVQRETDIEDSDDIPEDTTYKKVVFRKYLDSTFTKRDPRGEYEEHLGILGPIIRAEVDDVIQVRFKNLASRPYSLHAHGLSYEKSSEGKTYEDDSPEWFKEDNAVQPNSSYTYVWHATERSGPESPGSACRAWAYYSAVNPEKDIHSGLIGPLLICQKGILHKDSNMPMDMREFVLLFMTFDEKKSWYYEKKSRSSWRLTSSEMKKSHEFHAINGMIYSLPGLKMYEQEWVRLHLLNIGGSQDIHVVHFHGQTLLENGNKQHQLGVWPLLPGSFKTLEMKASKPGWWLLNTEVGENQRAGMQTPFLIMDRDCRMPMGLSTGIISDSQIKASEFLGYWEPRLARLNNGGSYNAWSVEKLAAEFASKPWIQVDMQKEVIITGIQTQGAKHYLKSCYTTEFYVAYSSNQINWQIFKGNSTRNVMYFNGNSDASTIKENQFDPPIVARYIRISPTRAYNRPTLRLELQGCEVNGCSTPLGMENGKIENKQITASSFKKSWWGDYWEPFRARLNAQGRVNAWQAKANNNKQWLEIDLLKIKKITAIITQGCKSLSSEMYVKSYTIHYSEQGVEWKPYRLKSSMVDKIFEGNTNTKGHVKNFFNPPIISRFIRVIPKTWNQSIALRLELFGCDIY

T1 sequence (P00742 41-179 limits assumed): as the sequence (P00742 41-179) above
T1 sequence (P00742 235-488 limits assumed): as the sequence (P00742 235-488) above
phospholipid-supported prothrombin activation by factors Xa and Va, sequence (P00742 41-179 limits assumed): as the sequence (P00742 41-179) above
phospholipid-supported prothrombin activation by factors Xa and Va, sequence (P00742 235-488 limits assumed): as the sequence (P00742 235-488) above

Compound: CC[C@H](C)[C@H](NC(=O)[C@H](C)NC(=O)[C@@H](N)CCC(=O)O)C(=O)N[C@@H](Cc1ccccc1)C(=O)N[C@@H](CS)C(=O)N[C@H](C(=O)N[C@@H](CCC(N)=O)C(=O)N[C@@H](Cc1ccc(O)cc1)C(=O)N[C@@H](CC(N)=O)C(=O)N[C@H](C(=O)N[C@@H](CCCNC(=N)N)C(=O)N[C@@H](CO)C(=O)N[C@@H](Cc1ccccc1)C(=O)N[C@@H](CCSC)C(=O)N[C@@H](CC(N)=O)C(=O)N[C@H](C(=O)N[C@@H](CCCCN)C(=O)N[C@@H](Cc1c[nH]cn1)C(=O)N[C@@H](Cc1c[nH]c2ccccc12)C(=O)N1CCC[C@H]1C(=O)N[C@@H](Cc1c[nH]c2ccccc12)C(=O)N[C@@H](CCSC)C(=O)N[C@@H](CCCCN)C(=O)N[C@@H](CC(C)C)C(=O)N[C@@H](Cc1ccccc1)C(=O)N[C@@H](Cc1ccccc1)C(=O)N[C@@H](CCCCN)C(=O)N[C@H](C(=O)N[C@@H](CCCCN)C(=O)N1CCC[C@H]1C(=O)N[C@@H](CC(C)C)C(=O)N[C@@H](CC(C)C)C(=O)N[C@@H](CCCCN)C(=O)N[C@@H](CO)C(=O)N[C@@H](C)C(=O)N[C@@H](CCC(=O)O)C(=O)N[C@H](C(=O)N[C@@H](CCC(=O)O)C(=O)N[C@@H](CCCCN)C(=O)N[C@@H](CCC(=O)O)C(N)=O)[C@@H](C)O)[C@@H](C)CC)C(C)C)[C@@H](C)CC)[C@@H](C)CC [HC815-854] (H-EAIFCIQYNIRSFMNVKHWPWMKLFFKIKPLLKSAETEKE-NH2)
- pIC50 ([1]; PC/PS vesicles 4 μM, read-out: IC50, phospholipid vesicles containing 20% phosphatidylserine-supported prothrombin activation): 3.98
- pIC50 ([1]; purified system, phospholipid vesicles, read-out: 1C (+phospholipid)): 5.12
- inhibition of thrombin generation in human plasma [2]: significantly inhibited
- pIC50 ([3]; purified system, no myosin): 4.97
- pIC50 [4]: 5.64
- inhibition of myosin-supported prothrombin activation at 5 μM [4]: inhibitory, to varying degrees
- inhibition of myosin-supported prothrombin activation at 100 μM [4]: inhibited
- pIC50 [5]: 5.70

Compound: QEEIKNMWAAFPPDVGGNVDYKNICYVITH [RLC133-162]
- inhibitory effects on phospholipid-supported prothrombin activation ([1]; compared with effects on myosin-supported prothrombin activation): not apparent
- pIC50 [4]: 4.59
- inhibition of myosin-supported prothrombin activation at 5 μM [4]: inhibitory, to varying degrees
- inhibition of myosin-supported prothrombin activation at 100 μM [4]: inhibited

Compound: RVFDKEGNGTVMGAELRHVL [ELC138-157]
- inhibition of prothrombin activation in the absence of myosin [3]: inhibited
- inhibition of myosin-supported prothrombin activation [4]: inhibited

Compound: YEDFVEGLRVFDKEGN [ELC129-144, Ac-YEDFVEGLRVFDKEGN-NH2]
- inhibition of prothrombin activation in the absence of myosin [3]: did not
- inhibition of myosin-supported prothrombin activation [4]: inhibited
